These results are taken from paper PMC7982320 (Pharmacology Research & Perspectives, 2021).

Common to all, as to type: in vitro ADME
Data set [1] has as its target T1, human OATP1B1 (Homo sapiens, UniProt Q9Y6L6).
T1 sequence (Q9Y6L6 1-691): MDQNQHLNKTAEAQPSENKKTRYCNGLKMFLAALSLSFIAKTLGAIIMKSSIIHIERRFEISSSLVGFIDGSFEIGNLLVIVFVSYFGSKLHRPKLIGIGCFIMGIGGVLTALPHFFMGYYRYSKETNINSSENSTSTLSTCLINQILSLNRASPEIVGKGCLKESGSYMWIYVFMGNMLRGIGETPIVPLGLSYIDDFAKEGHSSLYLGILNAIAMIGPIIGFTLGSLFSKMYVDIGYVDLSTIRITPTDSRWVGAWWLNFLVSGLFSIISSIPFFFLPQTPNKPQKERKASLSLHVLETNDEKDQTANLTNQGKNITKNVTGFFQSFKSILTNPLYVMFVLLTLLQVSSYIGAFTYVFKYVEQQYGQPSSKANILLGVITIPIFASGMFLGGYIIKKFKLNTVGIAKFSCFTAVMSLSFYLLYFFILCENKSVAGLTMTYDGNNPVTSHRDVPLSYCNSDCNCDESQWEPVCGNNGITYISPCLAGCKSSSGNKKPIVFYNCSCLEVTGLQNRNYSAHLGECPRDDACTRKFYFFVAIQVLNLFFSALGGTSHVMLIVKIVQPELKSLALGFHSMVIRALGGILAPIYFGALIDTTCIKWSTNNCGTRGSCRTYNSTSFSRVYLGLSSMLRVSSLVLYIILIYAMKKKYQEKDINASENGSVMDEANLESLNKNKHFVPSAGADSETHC
Put plainly: Uptake transporter substrate assay. As to conditions: OATP1B1 UPT; for Maximum fold accumulation over control: maximum seen at 2.5 µM and 20 min, n = 3.

The target in data set [2] is human MDR1 (Homo sapiens, UniProt P08183). Put plainly: Transporter substrate assay, MDCKII‐MDR1 monolayer bidirectional transport. As to conditions: MDR1 ML; for Maximum net ER: maximum seen at 1 and 5 µM, n = 3.
Data set [3] addresses T2, human OATP1B3 (Homo sapiens, UniProt Q9NPD5).
T2 sequence (Q9NPD5 1-702): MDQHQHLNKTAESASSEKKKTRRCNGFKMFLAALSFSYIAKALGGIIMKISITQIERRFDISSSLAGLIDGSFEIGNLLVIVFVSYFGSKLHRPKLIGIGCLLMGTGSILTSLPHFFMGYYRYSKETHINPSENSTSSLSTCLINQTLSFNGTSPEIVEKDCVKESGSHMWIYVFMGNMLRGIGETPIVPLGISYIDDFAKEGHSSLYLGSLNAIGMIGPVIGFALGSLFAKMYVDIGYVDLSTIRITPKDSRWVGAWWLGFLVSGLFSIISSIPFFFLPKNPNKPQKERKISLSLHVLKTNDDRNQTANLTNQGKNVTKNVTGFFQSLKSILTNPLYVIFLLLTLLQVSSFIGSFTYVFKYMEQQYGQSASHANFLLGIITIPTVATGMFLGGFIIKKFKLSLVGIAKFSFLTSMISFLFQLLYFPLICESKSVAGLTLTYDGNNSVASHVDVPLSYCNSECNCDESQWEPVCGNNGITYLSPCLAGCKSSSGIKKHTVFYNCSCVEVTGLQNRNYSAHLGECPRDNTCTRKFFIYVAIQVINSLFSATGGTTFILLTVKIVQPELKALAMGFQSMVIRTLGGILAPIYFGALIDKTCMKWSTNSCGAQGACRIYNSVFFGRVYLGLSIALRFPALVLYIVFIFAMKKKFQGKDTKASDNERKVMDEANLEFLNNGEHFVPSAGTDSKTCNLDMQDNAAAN
Nature of the data set: Uptake transporter substrate assay. As to conditions: OATP1B3 UPT; for Maximum fold accumulation over control: maximum seen at 1 µM and 20 min, n = 3.

The target of data set [4] is T3, human MATE1 (Homo sapiens, UniProt Q96FL8).
T3 sequence (Q96FL8 1-570): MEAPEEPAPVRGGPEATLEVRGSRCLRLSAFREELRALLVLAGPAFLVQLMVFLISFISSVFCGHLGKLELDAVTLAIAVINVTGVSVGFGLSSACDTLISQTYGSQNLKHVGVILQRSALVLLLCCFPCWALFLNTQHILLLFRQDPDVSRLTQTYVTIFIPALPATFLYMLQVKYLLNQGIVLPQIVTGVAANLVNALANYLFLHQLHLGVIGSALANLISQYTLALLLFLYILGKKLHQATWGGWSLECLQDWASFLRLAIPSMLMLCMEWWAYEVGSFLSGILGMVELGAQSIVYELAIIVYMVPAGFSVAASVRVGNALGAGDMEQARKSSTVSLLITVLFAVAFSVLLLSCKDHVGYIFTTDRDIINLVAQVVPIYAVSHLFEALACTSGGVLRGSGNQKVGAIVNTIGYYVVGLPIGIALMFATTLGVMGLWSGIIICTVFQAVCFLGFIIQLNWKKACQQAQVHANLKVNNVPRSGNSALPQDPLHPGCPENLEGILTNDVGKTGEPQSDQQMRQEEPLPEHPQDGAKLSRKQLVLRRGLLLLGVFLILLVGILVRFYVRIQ
Nature of the data set: Uptake transporter substrate assay. As to conditions: MATE1 UPT; for Maximum fold accumulation over control: maximum seen at 1 µM and 2 min, n = 3.

The target of data set [5] is T4, human BCRP (Homo sapiens, UniProt Q9UNQ0).
T4 sequence (Q9UNQ0 1-655): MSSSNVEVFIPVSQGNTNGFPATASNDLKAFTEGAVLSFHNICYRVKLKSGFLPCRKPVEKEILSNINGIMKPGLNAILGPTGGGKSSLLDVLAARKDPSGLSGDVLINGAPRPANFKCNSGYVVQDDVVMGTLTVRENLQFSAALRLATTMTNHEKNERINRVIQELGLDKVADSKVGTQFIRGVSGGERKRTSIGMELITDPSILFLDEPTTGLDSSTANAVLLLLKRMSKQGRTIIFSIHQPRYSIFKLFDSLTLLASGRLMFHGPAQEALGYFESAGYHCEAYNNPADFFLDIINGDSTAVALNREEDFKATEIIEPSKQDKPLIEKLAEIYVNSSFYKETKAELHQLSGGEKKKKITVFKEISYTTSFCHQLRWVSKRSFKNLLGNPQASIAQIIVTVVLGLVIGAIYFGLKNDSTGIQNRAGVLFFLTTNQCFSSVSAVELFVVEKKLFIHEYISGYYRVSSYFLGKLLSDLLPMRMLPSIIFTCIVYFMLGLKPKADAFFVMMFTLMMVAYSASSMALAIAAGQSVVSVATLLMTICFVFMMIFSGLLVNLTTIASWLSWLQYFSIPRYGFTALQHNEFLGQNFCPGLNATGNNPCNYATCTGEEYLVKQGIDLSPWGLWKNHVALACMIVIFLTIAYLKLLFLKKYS
Put plainly: Transporter substrate assay, MDCKII‐BCRP monolayer bidirectional transport. Particulars: BCRP ML; for Maximum net ER: maximum seen at 2.5 µM, n = 3.

The mark [6] stands for this setting: listed as 6β‐hydroxy‐21‐desacetyl deflazacort.

human MDR1, sequence (P08183 whole entry): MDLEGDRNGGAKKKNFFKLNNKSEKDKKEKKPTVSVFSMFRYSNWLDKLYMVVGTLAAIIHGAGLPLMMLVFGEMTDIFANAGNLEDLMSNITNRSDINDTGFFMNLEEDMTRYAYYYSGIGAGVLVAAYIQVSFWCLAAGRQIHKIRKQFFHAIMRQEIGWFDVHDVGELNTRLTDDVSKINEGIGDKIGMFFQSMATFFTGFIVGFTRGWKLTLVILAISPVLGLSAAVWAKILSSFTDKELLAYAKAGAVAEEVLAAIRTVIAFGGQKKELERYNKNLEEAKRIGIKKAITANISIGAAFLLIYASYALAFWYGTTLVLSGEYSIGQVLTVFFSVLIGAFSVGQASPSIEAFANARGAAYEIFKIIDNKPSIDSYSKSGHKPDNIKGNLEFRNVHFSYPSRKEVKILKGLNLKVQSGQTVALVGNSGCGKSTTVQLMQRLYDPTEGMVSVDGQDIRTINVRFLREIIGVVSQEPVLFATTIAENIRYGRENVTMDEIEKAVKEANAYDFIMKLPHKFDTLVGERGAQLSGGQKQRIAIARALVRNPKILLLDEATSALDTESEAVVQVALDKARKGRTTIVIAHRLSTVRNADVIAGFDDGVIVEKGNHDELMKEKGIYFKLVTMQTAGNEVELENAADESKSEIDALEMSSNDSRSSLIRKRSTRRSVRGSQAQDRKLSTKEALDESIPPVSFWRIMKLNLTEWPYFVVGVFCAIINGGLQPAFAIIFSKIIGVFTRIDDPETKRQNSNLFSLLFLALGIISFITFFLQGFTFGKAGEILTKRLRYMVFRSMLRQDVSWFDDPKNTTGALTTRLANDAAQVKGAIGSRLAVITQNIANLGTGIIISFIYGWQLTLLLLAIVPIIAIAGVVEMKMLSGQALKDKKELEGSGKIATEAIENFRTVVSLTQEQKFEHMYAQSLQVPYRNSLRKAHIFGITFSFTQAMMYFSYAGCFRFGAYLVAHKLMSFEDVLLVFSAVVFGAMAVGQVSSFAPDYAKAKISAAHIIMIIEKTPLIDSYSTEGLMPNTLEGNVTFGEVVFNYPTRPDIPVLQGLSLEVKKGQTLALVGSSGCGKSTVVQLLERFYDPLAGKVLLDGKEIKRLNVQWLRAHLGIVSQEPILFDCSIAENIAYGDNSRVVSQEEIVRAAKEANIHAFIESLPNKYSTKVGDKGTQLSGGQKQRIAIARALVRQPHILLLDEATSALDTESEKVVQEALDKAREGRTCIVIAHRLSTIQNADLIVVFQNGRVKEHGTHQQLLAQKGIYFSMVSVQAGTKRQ

Take `CC1=N[C@]2(C(=O)CO)[C@@H](C[C@H]3[C@@H]4C[C@@H](O)C5=CC(=O)C=C[C@]5(C)[C@H]4[C@@H](O)C[C@@]32C)O1` [6β‐OH‐21‐desDFZ, 6β‐Hydroxy‐21‐desacetyl deflazacort]: the Substrate potential result in data set [1] is “not a substrate”; in data set [1] (setting [6]) it was “No”; in data set [2] it was “not a substrate”; in data set [2] (setting [6]), “No”; in data set [3] it was “not a substrate”; in data set [3] (setting [6]) it was “No”. Further, the Substrate potential entry is reported as “not a substrate” in data set [4], “No” in data set [4] (setting [6]), “not a substrate” in data set [5] and “No” in data set [5] (setting [6]). Moreover, the “Maximum fold accumulation over control” value in data set [1] is 1.02 at 2.5 µM and 20 min fold; in data set [3], 1.47 at 1 µM and 20 min fold; in data set [4] it was 1.18 at 1 µM and 2 min fold. The “Maximum net ER” value was 0.59 at 1 and 5 µM in data set [2]; 0.17 at 2.5 µM in data set [5].

Turning to “[2’-^14C]-6β-hydroxy-21-desacetyl-deflazacort [^14C‐6β‐OH‐21‐desDFZ]”, the “Maximum fold accumulation over control” value in data set [1], in data set [3] and in data set [4] was less than 2 fold each time. The figures for the “Maximum net ER” value in data set [2] and in data set [5] were 0.59 and 0.17, respectively.
